Test [1] has as its system estrogen receptor (ER). Kind of test: viral ER reporter in ER negative breast cancer cell lines. It is filed as cell-based, human. The following applies: virus 100:1. The procedure: FIG. 3: Reporter activity in variety of estrogen receptor alpha positive (MCF-7, T47-D, ZR75-1, BT474) and negative (Cal-51, SkBr3, and MDA-MB231 cell lines). For each figure, the order is as follows: (1) refers to the no ligand control.
For adenovirus infections, cell lines were plated in 96 wells at the given density in phenol red free DMEM supplemented with 5% double-stripped serum (PR/5% DSS). The following day cells were exposed to the given quantity of plaque forming units per cell (multiplicity of infection, MOI) in PR/SF medium. This was incubated at 37° C. for 1 hour after which the media was replaced by PR free/5% DSS containing the ligands.
(§1) Reporter Gene Assay 48 hours after virus infection, 20 ul of 20% Triton in PBS was added to each well and incubated at RT for 10 minutes. […] (CRPG) made up in TBS at a concentration of 8 mg/ml was then added to the wells and the plate was incubated, foil-wrapped, at 37° C. until a colour change was observed. Plate readings were taken at a wavelength of 547 nm.
We went on to test the virus reporter in a variety of ER positive and ER negative cell lines. Again 0.5×10^5 cells were infected with 100 virus per cell (100:1). Using the GFP virus it was evident that the infectability of the cell lines was variable. […]

The test system of test [2] is estrogen receptor (ER). Kind of test: adenoERreporter assay in breast cancer cells from metastatic effusions (pleural, ascites). It is filed as cell-based, human.
Description: In the case of metastatic fluid, 100 mls of the fluid was sent for cytological examination and staining for ER and PR. The remaining fluid was centrifuged and the cell pellets were pooled. This was re-suspended in RPMI-1640/1% FCS and tumour cell numbers estimated as before. If the cells were in clusters, trypsin/EDTA (Sigma, Poole, UK) was used to obtain single cell suspensions before filtering to remove any debris. The remaining steps were as above. The purified cells were either infected immediately or cultured for a few days prior to infection.
(§2) For infections of primary cells, 6-10,000 cells/well were allowed and exposed to the given quantity of virus, after which they were pelleted and re-supended in 200 ul of PR free/5% DSS medium containing the appropriate ligands prior to plating into 96-well plates.
as §1
(§3) We purified breast cancer cells from metastatic fluid, both pleural and ascites as well as fine needle aspirates (FNA) from recurrent breast cancer. These cells were counted and infected with adenoERreporter and after 48 hours a β-gal assay was performed. We have infected 9 metastatic effusions including 2 cell lines of passage number two, derived from pleural effusions and 4 FNAs. Tables 3 and 4 show the treatment history and characteristics of the patients that provided the samples. Where possible, some of the fluid was sent for cytology and ER staining.
Background: In a reporter assay the amount or activity of a reporter protein is the signal.

In test [3] the target is T1, estrogen receptor (ER) (Homo sapiens, UniProt P03372).
T1 sequence (P03372 1-595): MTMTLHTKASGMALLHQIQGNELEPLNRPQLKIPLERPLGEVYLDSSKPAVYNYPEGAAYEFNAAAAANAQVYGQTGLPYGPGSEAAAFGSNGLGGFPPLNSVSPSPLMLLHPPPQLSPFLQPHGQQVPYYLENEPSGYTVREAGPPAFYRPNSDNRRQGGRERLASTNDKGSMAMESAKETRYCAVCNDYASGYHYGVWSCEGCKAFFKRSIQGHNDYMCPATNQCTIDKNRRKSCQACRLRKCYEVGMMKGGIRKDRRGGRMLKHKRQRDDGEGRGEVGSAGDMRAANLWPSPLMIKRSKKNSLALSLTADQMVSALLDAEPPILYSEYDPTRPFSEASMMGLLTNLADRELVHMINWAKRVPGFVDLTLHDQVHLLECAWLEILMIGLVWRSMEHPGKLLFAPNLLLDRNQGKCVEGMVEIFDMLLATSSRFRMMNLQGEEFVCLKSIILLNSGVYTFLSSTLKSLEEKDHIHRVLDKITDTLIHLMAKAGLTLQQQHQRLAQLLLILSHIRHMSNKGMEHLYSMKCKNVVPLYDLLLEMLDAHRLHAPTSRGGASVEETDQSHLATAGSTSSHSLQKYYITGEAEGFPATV
The following applies: ER positive cell lines (MCF-7, T47-D, ZR75-1, BT474), virus 100:1, ligands 10^−7M. Here is the method:
as §1

The target in test [4] is T1, estrogen receptor (ER). The following applies: antagonist at 10^−7M; MCF7, virus 100:1, 48 hours. The procedure: Cells were incubated for 48 hours following infections unless stated otherwise.
as §1

The subject of test [5] is estrogen receptor (ER). The experiment in a line: adenoERreporter assay in fine needle aspirates (FNA) from recurrent breast cancer. It is filed as cell-based, human. The procedure: Cells obtained from FNAs were collected in PBS (Sigma, Poole, UK) containing 2% FCS. If the aspirate was bloody, erythrocyte lysis buffer (0.155M NH4Cl, 10 mM KHCO3, 0.1 mM EDTA, pH 7.4) was used to lyse the red blood cells and after a further wash with PBS, the cells were re-suspended in culture media for counting and immediate infections.
as §2, §1
as §3, with “staining. However, this was not always feasible due to the variability of cancer cells in the metastatic fluid.” for “staining.”

The target in test [6] is T1, estrogen receptor (ER). The following applies: infected MCF7 cells.

Take `C[C@]12CC[C@@H]3c4ccc(O)cc4C[C@@H](CCCCCCCCC[S+]([O-])CCCC(F)(F)C(F)(F)F)[C@H]3[C@@H]1CC[C@@H]2O` (stereo partly shown) [ICI 182,780]: the “effect on ERE driven β-gal reporter / baseline activity” value in test [1] was “did not have a significant effect on the baseline activity”. The “Reporter Activity” value in test [2] (Table 3 patient 7) T4G3N1M0, Ascites, ER−/PR−, no prior endocrine treatment) is recorded as “x1.0”; in test [2] (Table 3 patient 8) T1G1N1M0, Ascites, primary ER−/PR+, recurrent ER++/PR−, prior LHRH 11m, Arimidex), “↓↓”; in test [5] (Table 4 patient 8) T2GN0M0, primary ER++/PR−, FNA ER−/PR−, prior Arimidex 1y), “x1.0”. Besides, the “effect on ER activity” value in test [2] (patient 4 (table 3), ascites, no previous treatment) is on record as “inhibitory”. Moreover, the “proportion of cases in which inhibitory” value in test [2] (relapsed patients, metastatic effusions and FNAs) is listed as 50%. Besides, the “reporter activity above baseline” value in test [3] is reported as “blocked even the baseline activity”. The “effect on E2 induced reporter activity” value in test [4] is reported as “blocked E2 induced reporter activity”. Besides, the “Reporter Assay: inhibition” value in test [5] (FNA summary table, N = 1, IHC ER−/PR−, ?Responder) is “OHT/ICI inhibit by × 1.8”. Moreover, the “β-gal expression by X-gal staining” value in test [6] is “completely abolished even basal levels of staining”.
